Where two headings read alike, the source gives them in different places.
Assays:
[1] = target: T1, Dopamine D1 (Homo sapiens, UniProt P21728); experiment: R-SAT assay, Dopamine D1; type: cell-based
T1 construct: expressed in transfected cells; host or cells: NIH3T3
Procedure: (§1) The test compound of Formula III was screened according to a modification of the method described in U.S. Pat. No. 5,912,312. The method, herein referred to as Method 1, consists of the following:
(§2) Receptor Selection and Amplification (R-SAT) Assays.
(§3) R-SAT assays were performed with minor modifications from that previously described (6). Briefly, NIH3T3 cells were grown in tissue culture treated rollerbottles to 40-50% confluence. Cells were transfected for 12-16 hours with plasmid DNAs using superfect (Qiagen Inc.) as per manufacture's protocols. R-SAT's were generally performed with 10 μg/rollerbottle of receptor and 50 μg/rollerbottle of Beta-galactosidase plasmid DNA. All receptor and G-protein constructs used were in the PSI mammalian expression vector (Promega Inc.). The transfected cells were then trypsinized and frozen in DMEM containing 10% DMSO. Frozen cells were later thawed, plated at 10,000-40,000 cells per well of a 96 ½ area plate that contained drug. […] Media was then removed from the plates and marker gene activity was measured by the addition of the beta-galactosidase substrate ONPG (in PBS with 5% NP-40). The resulting colorimetric reaction was measured in a spectrophotometric plate reader (Titertek Inc.) at […].
(§4) EC50, IC50 and Ki are presented as the negative of the calculated potency in Molar.

[2] = target: T2, CRF2a (Homo sapiens, UniProt Q13324); experiment: R-SAT assay, CRF2a; type: cell-based; settings: percent maximal activation relative to control compound
T2 construct: expressed in transfected cells; host or cells: NIH3T3
T2 sequence (Q13324 whole entry): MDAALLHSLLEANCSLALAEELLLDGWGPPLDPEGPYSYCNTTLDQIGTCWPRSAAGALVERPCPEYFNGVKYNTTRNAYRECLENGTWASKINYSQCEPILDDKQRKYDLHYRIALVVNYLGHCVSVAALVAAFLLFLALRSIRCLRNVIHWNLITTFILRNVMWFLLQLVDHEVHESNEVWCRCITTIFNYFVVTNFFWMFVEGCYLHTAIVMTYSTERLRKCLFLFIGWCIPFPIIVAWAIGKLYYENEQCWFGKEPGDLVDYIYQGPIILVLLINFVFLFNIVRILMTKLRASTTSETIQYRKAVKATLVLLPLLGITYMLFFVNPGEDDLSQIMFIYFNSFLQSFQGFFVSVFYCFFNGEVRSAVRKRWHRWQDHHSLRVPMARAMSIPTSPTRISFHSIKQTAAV
Procedure: as §1, §2, §3, §4

[3] = target: T3, Histamine H2 (Homo sapiens, UniProt P25021); experiment: R-SAT assay, Histamine H2; type: cell-based
T3 construct: expressed in transfected cells; host or cells: NIH3T3
T3 sequence (P25021 whole entry): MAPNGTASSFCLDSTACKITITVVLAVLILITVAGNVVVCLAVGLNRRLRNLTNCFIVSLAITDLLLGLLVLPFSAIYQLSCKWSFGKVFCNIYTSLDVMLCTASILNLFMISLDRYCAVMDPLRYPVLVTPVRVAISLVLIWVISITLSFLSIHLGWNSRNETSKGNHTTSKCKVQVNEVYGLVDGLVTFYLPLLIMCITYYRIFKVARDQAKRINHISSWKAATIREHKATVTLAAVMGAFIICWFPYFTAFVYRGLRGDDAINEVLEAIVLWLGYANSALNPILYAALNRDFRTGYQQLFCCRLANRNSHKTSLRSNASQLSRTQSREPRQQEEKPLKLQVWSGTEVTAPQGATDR
Procedure: as §1, §2, §3, §4

[4] = target: T4, Beta Adrenergic 2 (Homo sapiens, UniProt P07550); experiment: R-SAT assay, Beta Adrenergic 2; type: cell-based
T4 construct: expressed in transfected cells; host or cells: NIH3T3
T4 sequence (P07550 whole entry): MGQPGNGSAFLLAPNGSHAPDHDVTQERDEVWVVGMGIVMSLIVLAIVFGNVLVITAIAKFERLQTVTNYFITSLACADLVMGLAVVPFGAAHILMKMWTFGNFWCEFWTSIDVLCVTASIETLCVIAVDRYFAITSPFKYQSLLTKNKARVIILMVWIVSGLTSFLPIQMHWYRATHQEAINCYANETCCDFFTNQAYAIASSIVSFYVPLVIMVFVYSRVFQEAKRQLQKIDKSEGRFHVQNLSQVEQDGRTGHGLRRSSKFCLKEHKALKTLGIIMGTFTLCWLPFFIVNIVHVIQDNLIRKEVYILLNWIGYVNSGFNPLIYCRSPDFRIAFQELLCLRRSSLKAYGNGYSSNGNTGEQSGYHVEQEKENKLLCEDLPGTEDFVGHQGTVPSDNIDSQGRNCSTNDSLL
Procedure: as §1, §2, §3, §4

[5] = target: T5, Dopamine D2 (Homo sapiens, UniProt P14416); experiment: R-SAT assay, Dopamine D2; type: cell-based
T5 construct: expressed in transfected cells; host or cells: NIH3T3
T5 sequence (P14416 whole entry): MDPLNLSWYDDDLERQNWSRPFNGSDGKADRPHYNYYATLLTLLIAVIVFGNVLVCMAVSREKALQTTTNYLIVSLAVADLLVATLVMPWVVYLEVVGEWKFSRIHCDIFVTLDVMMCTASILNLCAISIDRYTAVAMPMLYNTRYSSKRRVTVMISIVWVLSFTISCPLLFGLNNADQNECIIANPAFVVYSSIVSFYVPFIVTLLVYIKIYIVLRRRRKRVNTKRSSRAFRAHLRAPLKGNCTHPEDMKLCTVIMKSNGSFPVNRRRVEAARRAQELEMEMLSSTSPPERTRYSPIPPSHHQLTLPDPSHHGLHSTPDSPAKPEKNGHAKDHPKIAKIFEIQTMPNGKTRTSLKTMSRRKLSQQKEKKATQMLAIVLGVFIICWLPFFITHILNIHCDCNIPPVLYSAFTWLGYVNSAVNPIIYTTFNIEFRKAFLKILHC
Procedure: as §1, §2, §3, §4

[6] = system: male NSA mice; experiment: Locomotor activity in mice after i.v. injection; type: in vivo
Procedure: The test compound of Formula III was tested at 10 mg/kg, i.v. in male NSA mice. Locomotor activity was measured for 15 min following injection. The locomotor activity was decreased relative to sham injected animals. Within a few minutes into the session, the mice sat quietly in a corner of the chamber in a normal posture.
Following the initial experiment, a dose-response curves using 1, 3, and 10 mg/kg, i.v. were conducted. The effects of 10 mg/kg the test compound of Formula III were replicated.

[7] = target: T6, Serotonin 5HT7 (Homo sapiens, UniProt P34969); experiment: R-SAT assay, Serotonin 5HT7; type: cell-based; settings: percent maximal activation relative to control compound
T6 construct: expressed in transfected cells; host or cells: NIH3T3
Procedure: as §1, §2, §3, §4

[8] = target: T7, Serotonin 5HT-1A (Homo sapiens, UniProt P08908); experiment: R-SAT assay, Serotonin 5HT-1A; type: cell-based; settings: competitive antagonist mode; percent maximal inhibition relative to control standard compound
T7 construct: expressed in transfected cells; host or cells: NIH3T3
Procedure: as §1, §2, §3, §4

[9] = target: T8, SST5 (Homo sapiens, UniProt P35346); experiment: R-SAT assay, SST5; type: cell-based; settings: percent maximal activation relative to control compound
T8 construct: expressed in transfected cells; host or cells: NIH3T3
Procedure: as §1, §2, §3, §4

[10] = target: T9, Serotonin 5HT2c (Homo sapiens, UniProt P28335); experiment: R-SAT assay, Serotonin 5HT2c; type: cell-based; settings: inverse agonist mode; percent maximal inhibition relative to repression of basal activity by a control standard compound
T9 construct: expressed in transfected cells; host or cells: NIH3T3
Procedure: as §1, §2, §3, §4

[11] = target: T10, urotensin II receptor (Homo sapiens, UniProt Q9UKP6); experiment: R-SAT assay, Urotensin II receptor; type: cell-based
T10 construct: expressed in transfected cells; host or cells: NIH3T3
T10 sequence (Q9UKP6 1-389): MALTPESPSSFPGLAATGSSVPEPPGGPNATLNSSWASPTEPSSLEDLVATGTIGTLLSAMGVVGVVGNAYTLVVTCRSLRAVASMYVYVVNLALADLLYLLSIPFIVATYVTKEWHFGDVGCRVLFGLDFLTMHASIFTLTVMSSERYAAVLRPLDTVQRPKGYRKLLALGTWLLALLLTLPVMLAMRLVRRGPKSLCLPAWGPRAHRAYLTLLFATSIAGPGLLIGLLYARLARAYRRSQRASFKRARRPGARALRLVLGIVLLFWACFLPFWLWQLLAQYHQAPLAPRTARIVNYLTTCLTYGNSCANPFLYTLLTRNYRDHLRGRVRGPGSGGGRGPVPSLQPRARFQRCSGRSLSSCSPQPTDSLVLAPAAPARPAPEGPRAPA
Procedure: as §1, §2
(§5) R-SAT assays were performed with minor modifications from that previously described (6). Briefly, NIH3T3 cells were grown in tissue culture treated rollerbottles to 40-50% confluence. Cells were transfected for 12-16 hours with plasmid DNAs using superfect (Qiagen Inc.) as per manufacture's protocols. R-SAT's were generally performed with 10 μg/rollerbottle of receptor and 50 μg/rollerbottle of Beta-galactosidase plasmid DNA. All receptor and G-protein constructs used were in the PSI mammalian expression vector (Promega Inc.). The transfected cells were then trypsinized and frozen in DMEM containing 10% DMSO. Frozen cells were later thawed, plated at 10,000-40,000 cells per well of a 96 ½ area plate that contained drug. Cells were then grown in a humidified atmosphere with 5% ambient CO2 for five days. Media was then removed from the plates and marker gene activity was measured by the addition of the beta-galactosidase substrate ONPG (in PBS with 5% NP-40). The resulting colorimetric reaction was measured in a spectrophotometric plate reader (Titertek Inc.) at […].
as §4

[12] = target: T11, SST3 (Homo sapiens, UniProt P32745); experiment: R-SAT assay, SST3; type: cell-based; settings: percent maximal activation relative to control compound
T11 construct: expressed in transfected cells; host or cells: NIH3T3
T11 sequence (P32745 whole entry, species assumed): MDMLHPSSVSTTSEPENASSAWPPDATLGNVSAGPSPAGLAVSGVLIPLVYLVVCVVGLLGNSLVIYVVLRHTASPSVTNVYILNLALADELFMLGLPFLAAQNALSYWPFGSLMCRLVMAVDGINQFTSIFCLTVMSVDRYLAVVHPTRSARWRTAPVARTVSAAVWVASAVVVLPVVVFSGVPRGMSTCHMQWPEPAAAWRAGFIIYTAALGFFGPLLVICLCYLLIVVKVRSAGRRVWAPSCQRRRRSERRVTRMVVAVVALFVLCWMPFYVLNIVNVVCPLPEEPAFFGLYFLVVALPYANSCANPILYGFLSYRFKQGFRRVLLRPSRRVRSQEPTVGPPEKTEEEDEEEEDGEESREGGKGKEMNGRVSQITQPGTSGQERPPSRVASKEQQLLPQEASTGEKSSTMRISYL
Procedure: as §1, §2, §3, §4

[13] = target: T12, Serotonin 5HT2b (Homo sapiens, UniProt P41595); experiment: R-SAT assay, Serotonin 5HT2b; type: cell-based
T12 construct: expressed in transfected cells; host or cells: NIH3T3
T12 sequence (P41595 whole entry): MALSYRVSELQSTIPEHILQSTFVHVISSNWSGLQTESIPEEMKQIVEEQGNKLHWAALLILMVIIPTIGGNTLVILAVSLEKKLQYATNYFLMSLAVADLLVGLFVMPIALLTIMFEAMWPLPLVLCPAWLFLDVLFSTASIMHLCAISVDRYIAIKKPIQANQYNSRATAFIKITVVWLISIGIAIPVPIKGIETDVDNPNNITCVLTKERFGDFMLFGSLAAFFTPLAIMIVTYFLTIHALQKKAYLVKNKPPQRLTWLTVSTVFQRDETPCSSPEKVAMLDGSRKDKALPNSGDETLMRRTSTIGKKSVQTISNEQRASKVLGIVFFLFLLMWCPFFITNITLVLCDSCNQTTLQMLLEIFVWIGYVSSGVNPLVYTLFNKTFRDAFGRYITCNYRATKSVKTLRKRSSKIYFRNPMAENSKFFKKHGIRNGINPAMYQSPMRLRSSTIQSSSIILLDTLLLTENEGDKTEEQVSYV
Procedure: as §1, §2, §5, §4

[14] = target: T13, Acetylcholine m3 (Homo sapiens, UniProt P20309); experiment: R-SAT assay, Acetylcholine m3; type: cell-based
T13 construct: expressed in transfected cells; host or cells: NIH3T3
T13 sequence (P20309 whole entry): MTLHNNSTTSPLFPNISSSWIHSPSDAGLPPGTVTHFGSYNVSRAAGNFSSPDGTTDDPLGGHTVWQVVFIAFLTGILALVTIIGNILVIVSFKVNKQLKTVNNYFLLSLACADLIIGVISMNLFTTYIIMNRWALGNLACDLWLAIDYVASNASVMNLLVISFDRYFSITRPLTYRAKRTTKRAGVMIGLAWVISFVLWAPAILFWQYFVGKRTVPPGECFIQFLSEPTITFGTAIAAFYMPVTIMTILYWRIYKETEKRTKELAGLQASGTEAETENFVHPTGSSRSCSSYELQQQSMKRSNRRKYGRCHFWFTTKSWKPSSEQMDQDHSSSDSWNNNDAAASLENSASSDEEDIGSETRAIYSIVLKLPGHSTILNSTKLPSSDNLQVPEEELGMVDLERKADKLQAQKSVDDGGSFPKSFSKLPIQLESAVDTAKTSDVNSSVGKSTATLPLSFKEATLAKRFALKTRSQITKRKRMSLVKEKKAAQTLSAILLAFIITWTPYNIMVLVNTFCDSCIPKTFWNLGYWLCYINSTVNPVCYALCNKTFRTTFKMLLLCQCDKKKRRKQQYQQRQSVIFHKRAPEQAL
Procedure: as §1, §2, §3, §4

[15] = target: T14, SST2 (Homo sapiens, UniProt P30874); experiment: R-SAT assay, SST2; type: cell-based; settings: percent maximal activation relative to control compound
T14 construct: expressed in transfected cells; host or cells: NIH3T3
Procedure: as §1, §2, §3, §4

[16] = target: T15, CCKa (Homo sapiens, UniProt P32238); experiment: R-SAT assay, CCKa; type: cell-based; settings: percent maximal activation relative to control compound
T15 construct: expressed in transfected cells; host or cells: NIH3T3
T15 sequence (P32238 whole entry): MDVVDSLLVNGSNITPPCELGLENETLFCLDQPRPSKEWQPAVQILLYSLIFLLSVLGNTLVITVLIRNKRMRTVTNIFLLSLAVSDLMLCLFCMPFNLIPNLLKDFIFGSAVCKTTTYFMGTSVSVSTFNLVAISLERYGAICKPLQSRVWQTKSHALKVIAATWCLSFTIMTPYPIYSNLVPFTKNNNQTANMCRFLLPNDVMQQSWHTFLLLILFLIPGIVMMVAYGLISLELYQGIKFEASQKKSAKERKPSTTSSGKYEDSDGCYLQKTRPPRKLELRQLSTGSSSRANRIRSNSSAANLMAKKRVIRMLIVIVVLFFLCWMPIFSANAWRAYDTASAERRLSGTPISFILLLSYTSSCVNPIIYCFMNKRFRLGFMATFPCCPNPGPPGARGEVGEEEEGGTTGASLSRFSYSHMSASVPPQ
Procedure: as §1, §2, §3, §4

[17] = target: T16, Acetylcholine m1 (Homo sapiens, UniProt P11229); experiment: R-SAT assay, Acetylcholine m1; type: cell-based
T16 construct: expressed in transfected cells; host or cells: NIH3T3
T16 sequence (P11229 whole entry): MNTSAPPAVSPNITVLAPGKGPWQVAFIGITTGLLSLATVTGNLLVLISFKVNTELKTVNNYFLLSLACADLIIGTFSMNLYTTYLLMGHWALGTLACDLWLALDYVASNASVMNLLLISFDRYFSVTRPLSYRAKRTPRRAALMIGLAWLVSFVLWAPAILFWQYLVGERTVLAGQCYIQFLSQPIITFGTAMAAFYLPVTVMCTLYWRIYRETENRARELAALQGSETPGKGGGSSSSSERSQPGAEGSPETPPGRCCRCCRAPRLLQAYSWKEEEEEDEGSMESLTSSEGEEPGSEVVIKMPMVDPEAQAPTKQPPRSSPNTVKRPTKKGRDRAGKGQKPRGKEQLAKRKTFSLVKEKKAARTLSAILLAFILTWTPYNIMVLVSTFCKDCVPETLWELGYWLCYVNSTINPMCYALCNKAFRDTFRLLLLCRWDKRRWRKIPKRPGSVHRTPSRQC
Procedure: as §1, §2, §3, §4

[18] = target: T17, CRF1 (Homo sapiens, UniProt P34998); experiment: R-SAT assay, CRF1; type: cell-based; settings: percent maximal activation relative to control compound
T17 construct: expressed in transfected cells; host or cells: NIH3T3
Procedure: as §1, §2, §3, §4

[19] = target: T18, Histamine H1 (Homo sapiens, UniProt P35367); experiment: R-SAT assay, Histamine H1; type: cell-based; settings: competitive antagonist mode; percent maximal inhibition relative to control standard compound
T18 construct: expressed in transfected cells; host or cells: NIH3T3 cells, receptor plasmid in PSI mammalian expression vector (Promega)
Procedure: as §1, §2, §3, §4

[20] = target: T19, CRF2b (Homo sapiens, UniProt Q13324); experiment: R-SAT assay, CRF2b; type: cell-based; settings: percent maximal activation relative to control compound
T19 construct: expressed in transfected cells; host or cells: NIH3T3
Procedure: as §1, §2, §3, §4

[21] = target: T20, k opioid (Homo sapiens, UniProt P41145); experiment: R-SAT assay, k opioid; type: cell-based; settings: percent maximal activation relative to control compound
T20 construct: expressed in transfected cells; host or cells: NIH3T3
T20 sequence (P41145 whole entry): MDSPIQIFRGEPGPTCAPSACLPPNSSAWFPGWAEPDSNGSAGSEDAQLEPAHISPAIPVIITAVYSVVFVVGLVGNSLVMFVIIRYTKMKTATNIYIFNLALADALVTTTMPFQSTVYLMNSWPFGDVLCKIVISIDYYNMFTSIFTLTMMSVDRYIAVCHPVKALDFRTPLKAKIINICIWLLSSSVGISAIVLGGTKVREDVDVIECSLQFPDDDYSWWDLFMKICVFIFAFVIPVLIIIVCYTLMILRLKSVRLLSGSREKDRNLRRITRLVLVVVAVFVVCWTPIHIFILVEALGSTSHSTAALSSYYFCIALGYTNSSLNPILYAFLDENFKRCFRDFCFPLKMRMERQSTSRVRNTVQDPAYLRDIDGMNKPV
Procedure: as §1, §2, §3, §4

[22] = competitive antagonist mode, percent maximal inhibition relative to control standard compound
[23] = percent maximal activation relative to control compound
[24] = inverse agonist mode, percent maximal inhibition relative to repression of basal activity by a control standard compound

T1 sequence (P21728 whole entry): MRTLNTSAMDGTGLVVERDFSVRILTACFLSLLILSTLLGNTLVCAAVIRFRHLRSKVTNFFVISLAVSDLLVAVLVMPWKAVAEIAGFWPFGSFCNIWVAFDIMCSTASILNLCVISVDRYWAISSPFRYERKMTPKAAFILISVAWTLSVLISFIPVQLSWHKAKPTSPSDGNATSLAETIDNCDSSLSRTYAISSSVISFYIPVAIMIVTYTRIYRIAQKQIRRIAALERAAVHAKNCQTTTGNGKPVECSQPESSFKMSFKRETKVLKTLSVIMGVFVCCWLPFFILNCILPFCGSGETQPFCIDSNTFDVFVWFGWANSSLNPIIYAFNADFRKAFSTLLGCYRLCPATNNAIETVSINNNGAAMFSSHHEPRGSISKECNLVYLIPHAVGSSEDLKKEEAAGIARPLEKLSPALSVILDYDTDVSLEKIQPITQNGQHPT

CN(C)CCC1(c2ccc(Cl)cc2)Cc2ccccc2C(=O)O1 (stereo not shown) [Formula III]
Competitive Antagonist % Inh [1, 22]: 0%
Agonist % Eff [1, 23]: 0%
Agonist % Eff [2]: 0%
Inverse Agonist % Inh [3, 24]: 0%
Agonist % Eff [3, 23]: 0%
Competitive Antagonist % Inh [4, 22]: 0%
Agonist % Eff [4, 23]: 0%
Competitive Antagonist % Inh [5, 22]: 13.2%
Agonist % Eff [5, 23]: 13.6%
locomotor activity ([6]; 10 mg/kg i.v., male NSA mice, 15 min following injection, relative to sham injected animals): decreased
behavioural observation (responsiveness, appearance) ([6]; 10 mg/kg i.v., male NSA mice, during the session): responsive to sound and touch and otherwise appeared normal
effects on locomotor activity in dose-response experiment ([6]; dose-response 1, 3 and 10 mg/kg i.v., result stated for 10 mg/kg): replicated
Agonist % Eff [7]: 0%
Competitive Antagonist % Inh [8]: 0%
Agonist % Eff [9]: 0%
Inverse Agonist % Inh [10]: 0%
EC50 ([11]; agonist mode, negative of the calculated potency in Molar, read-out: Agonist EC50 (converted)): 100 nM
maximal biological response ([11]; compared with the response evoked by the urotensin II peptide): equal to or greater than the response evoked by the urotensin II peptide
EC50 ([11]; functional potency, Example 1 (Method 1), read-out: EC50 for the urotensin II receptor): 200 nM
Agonist % Eff [11, 23]: 132%
Agonist % Eff [12]: 0%
Competitive Antagonist % Inh [13, 22]: 0%
Inverse Agonist % Inh [13, 24]: 0%
Agonist % Eff [13, 23]: 0%
Competitive Antagonist % Inh [14, 22]: 28%
Agonist % Eff [14, 23]: 1.8%
Agonist % Eff [15]: 0%
Agonist % Eff [16]: 0%
Competitive Antagonist % Inh [17, 22]: 13%
Agonist % Eff [17, 23]: 3%
Agonist % Eff [18]: 0%
Competitive Antagonist % Inh [19]: 0%
Agonist % Eff [20]: 0%
Agonist % Eff [21]: 0%
